Values joined by “and” are separate entries in the source; they are usually repeats but may differ in a detail not shown here. Equal values may be shown once. Marks after values point to notes of the source that are not given here.
Columns and labels:
[1] = system: nursing piglets; test: Litter performance: number of nursing piglets and piglet mortality in litters of lactating sows fed sorbitol; type: in vivo, swine
Method: (§1) In this example, sixty-two (62) lactating sows were subjected to one of three different feeding trials that each began shortly (within 48 hours) after the lactating sows gave birth to piglets (i.e.: shortly after farrowing) and extended to the day the different piglets were wearied from the respective sows. The purpose of this example was to evaluate the effect of feeding lactating sows varying amounts of sugar alcohol, or no sugar alcohol, on subsequent piglet litter performance parameters, such as mortality prior to weaning and litter weight gain during the pre-weaning period. Sorbitol was used as the sugar alcohol in this example.
Immediately after farrowing, twenty sows were randomly assigned to the Control, twenty-one sows were randomly assigned to Trial A, and twenty-one sows were randomly assigned to Trial B. Sow assignment did take into account parity (number of litters per sow) to artificially balance parity across the Control, Trial A, and Trial B. The different sows of the Control, Trial A, and Trial B had parities ranging from one to more than two. Additionally, litter size was equalized between the different sows of the Control, Trial A, and Trial B within forty-eight hours after farrowing to assure that all sows, whether assigned to the Control, Trial A or Trial B, had the same, or about the same, number of nursing piglets. The reason for waiting forty-eight hours before cross-fostering in this fashion was to assure each piglet received colostrum from their original dam.
(§2) In Trial A, each of the lactating sows received the control feed plus about twenty-six grams of sorbitol per day. In Trial B, each of the lactating sows received the control feed plus about fifty-two grams of sorbitol per day.
The lactating sows of both Trial A and Trial B received the same daily amount of control feed that was fed to the lactating sows of the Control with the exception that two pounds of the control feed provided daily to the lactating sows of both Trial A and Trial B were replaced with two pounds of a sorbitol-coated control feed (hereinafter referred to as “top-dressed control feed”). To create the top-dressed control feed, liquid sorbitol was heated to a temperature ranging from about 100° F. and about 120° F. The heated liquid sorbitol was then sprayed over a batch of about three hundred to four hundred pounds of the control feed and thoroughly mixed to form the top-dressed control feed. Following mixing, the top-dressed control feed was divided and separately bagged in two pound increments. An appropriate ratio of the liquid sorbitol to the control feed was selected for the top-dressed control feed destined for the Trial A lactating sows to assure that each two pound allotment of the control feed destined for the Trial A lactating sows included about twenty-six grams of sorbitol. Likewise, an appropriate ratio of the liquid sorbitol to the control feed was selected for the top-dressed control feed destined for the Trial B lactating sows to assure that each two pound allotment of the top-dressed control feed destined for the Trial B lactating sows included about fifty-two grams of sorbitol.
During the feeding trial of this example, the top dressed control feed was applied three times daily to the balance of the control feed being provided individually at that feeding to the individual lactating sows of Trial A and Trial B. Approximately one-third of the top-dressed control feed was provided to the sows in the morning feeding, approximately one-third of the top dressed control feed was provided to the lactating sows in the noon feeding, and the remaining approximate one-third of the top-dressed control feed was provided to the sows in the afternoon feeding. The twenty-one sows of Trial A each received a total of about two pounds of the top-dressed control feed containing about 26 grams of sorbitol per day. […]

[2] = Litter performance: total litter live weight and mean individual piglet weight; type: in vivo, swine
Method: In each of the Examples provided below, each piglet was weighed two days after birth, fourteen days after birth, and again at weaning. All data that is provided in Tables 4-9 below for the lactating sows is based upon individual data for each lactating sow, then-present, as least square means of the particular data over all lactating sows present in the test at the time the particular data was recorded. All data that is provided in Tables 4-9 below for the piglets is based upon data for each litter of piglets, then-present, as least square means of the particular data over all piglets of the litter present in the test at the time the particular data was recorded. Data for parameters presented in Tables 4-9 was analyzed using the general linear model (GLM) statistical procedure of SAS™ statistical analysis software for a randomized complete block design that included both the particular Iced regimen and the week of the test period in the model statement. The SAS™ statistical analysis software is available from SAS Institute, Inc. of Cary, N.C. Additionally, all data was analyzed to determine the mean of the data for each variable under consideration during the collection period for the particular data.
as §1, §2
Additionally, the collective body weights of the piglets assigned to each lactating sow of the three different trials were measured and recorded on day two post-farrowing (about forty-eight hours after farrowing), on day fourteen post-farrowing (fourteen days after farrowing), and on the day the piglets were weaned. The mean body weight values for each individual piglet of the three different trials were derived for each piglet individually from the weight data recorded for each piglet litter by dividing the collective litter weight determined for a particular litter by the total number of piglets then-present in the litter to attain the mean individual piglet weights on day two post-farrowing (about forty-eight hours after farrowing), on day fourteen post-farrowing (fourteen days after farrowing), and on the day the piglets were weaned.
In this example, the data from Example 1 was analyzed to remove data attributable to sows with a parity of only one. Parity refers to the number of litters a sow has previously given birth to during its life. Gilts or first-parity sows typically consume approximately fifteen to twenty percent less feed during lactation and also typically produce less milk than sows with parities greater than one. The litters of parity one sows also tend to have lower weaning weights and more health problems than the litters of sows with parities greater than one. The purpose of looking at the Example 1 data, as re-analyzed to remove the effect of parity one data, is to determine the influence of natural differences in feed intake and litter performance of parity one sows on the data presented in Example 1 above. Removing the data contributed by the […] parity one sows in Example 1, left the Control with fourteen sows of parity two or higher, left Trial A with sixteen sows of parity two or higher, and left Trial B with sixteen sows of parity two or higher. […]

[3] = Trial A, 26 grams sorbitol per day, Parity ≥ 1, At Weaning
[4] = Trial A, 26 grams sorbitol per day, Parity ≥ 1, Day 14
[5] = Trial A, 26 grams sorbitol per day, Parity ≥ 1, day one post-farrowing to weaning
[6] = Trial A, 26 grams sorbitol per day, Parity ≥ 1, day one to day fourteen post-farrowing
[7] = Trial A, 26 grams sorbitol per day, Parity ≥2, At Weaning
[8] = Trial A, 26 grams sorbitol per day, Parity ≥2, Day 2
[9] = Trial A, 26 grams sorbitol per day, Parity ≥2, Day 14
[10] = Trial A, 26 grams sorbitol per day, Parity ≥ 2, day one post-farrowing to weaning
[11] = Trial A, 26 grams sorbitol per day, Parity ≥ 2, day one to day fourteen post-farrowing
[12] = Trial B, 52 grams sorbitol per day, Parity ≥ 1, At Weaning
[13] = Trial B, 52 grams sorbitol per day, Parity ≥ 1, Day 14
[14] = Trial B, 52 grams sorbitol per day, Parity ≥ 1, day fourteen post-farrowing to weaning
[15] = Trial B, 52 grams sorbitol per day, Parity ≥ 1, day one post-farrowing to weaning
[16] = Trial B, 52 grams sorbitol per day, Parity ≥ 1, day one to day fourteen post-farrowing
[17] = Trial B, 52 grams sorbitol per day, Parity ≥2, At Weaning
[18] = Trial B, 52 grams sorbitol per day, Parity ≥2, Day 2
[19] = Trial B, 52 grams sorbitol per day, Parity ≥2, Day 14
[20] = Trial B, 52 grams sorbitol per day, Parity ≥ 2, day one post-farrowing to weaning
[21] = Trial B, 52 grams sorbitol per day, Parity ≥ 2, day one to day fourteen post-farrowing
[22] = Trial A, 26 grams sorbitol per day, Parity ≥ 1, Day 2
[23] = Trial B, 52 grams sorbitol per day, Parity ≥ 1, Day 2

In the case of OC[C@@H](O)[C@@H](O)[C@H](O)[C@@H](O)CO [sorbitol], the “Number of Nursing Piglets” value ([1]; Trial A, 26 grams sorbitol per day to sows, Parity ≥ 1, Day 2) is reported as 10.57, the “Number of Nursing Piglets” value [1, 3] is reported as 9.95 and the “Percentage Piglet Mortality” value ([1]; Trial A, 26 grams sorbitol per day, Parity ≥ 1, Day 1 to Day 14) is reported as 3.99% and 3.99^c percent. The “Percentage Piglet Mortality” value ([1]; Trial A, 26 grams sorbitol per day, Parity ≥ 1, Day 1 to Weaning) was 5.69% and 5.69^c percent, the “Number of Nursing Piglets” value [1, 4] was 10.14 and the “Percentage Piglet Mortality” value ([1]; Trial A, 26 grams sorbitol per day, Parity ≥ 1, Day 14 to weaning) was 1.74^d percent. The “piglet mortality drop versus Control” value [1, 5] was 47.07%, the “piglet mortality percentage drop versus Control” value [1, 5] was 5.06 percentage points and the “piglet mortality drop versus Control” value [1, 6] was 54.97%. The “piglet mortality percentage drop versus Control” value [1, 6] was 4.87 percentage points, the “Number of Nursing Piglets” value [1, 7] was 10.01 and the “Percentage Piglet Mortality” value ([1]; Trial A, 26 grams sorbitol per day, Parity ≥2, Day 1 to Day 14) was 3.52% and 3.52^c percent. The “Percentage Piglet Mortality” value ([1]; Trial A, 26 grams sorbitol per day, Parity ≥2, Day 1 to Weaning) was 4.69% and 4.69^c percent, the “Number of Nursing Piglets” value [1, 8] was 10.51 and the “Number of Nursing Piglets” value [1, 9] was 10.14. For the same compound, the “Percentage Piglet Mortality” value ([1]; Trial A, 26 grams sorbitol per day, Parity ≥2, Day 14 to weaning) was 1.23%, the “piglet mortality drop versus Control” value [1, 10] was 63.27% and the “piglet mortality percentage drop versus Control” value [1, 10] was 8.08 percentage points. For the same compound, the “piglet mortality drop versus Control” value [1, 11] was 67.20%, the “piglet mortality percentage drop versus Control” value [1, 11] was 7.21 percentage points and the “Number of Nursing Piglets” value ([1]; Trial B, 52 grams sorbitol per day to sows, Parity ≥ 1, Day 2) was 10.50. The “Number of Nursing Piglets” value [1, 12] was 10.03, the “Percentage Piglet Mortality” value ([1]; Trial B, 52 grams sorbitol per day, Parity ≥ 1, Day 1 to Day 14) was 4.61% and 4.61^e percent and the “Percentage Piglet Mortality” value ([1]; Trial B, 52 grams sorbitol per day, Parity ≥ 1, Day 1 to Weaning) was 4.60% and 4.60^c percent. For the same compound, the “Number of Nursing Piglets” value [1, 13] was 10.0, the “Percentage Piglet Mortality” value ([1]; Trial B, 52 grams sorbitol per day, Parity ≥ 1, Day 14 to weaning) was 0.00% and 0.00^e percent and the “piglet mortality drop versus Control” value [1, 14] was 100%. The “piglet mortality percentage drop versus Control” value [1, 14] was 2.09 percentage points, the “piglet mortality drop versus Control” value [1, 15] was 57.21% and the “piglet mortality percentage drop versus Control” value [1, 15] was 6.15 percentage points. The “piglet mortality drop versus Control” value [1, 16] was 47.97%, the “piglet mortality percentage drop versus Control” value [1, 16] was 4.25 percentage points and the “Number of Nursing Piglets” value [1, 17] was 10.02. The “Percentage Piglet Mortality” value ([1]; Trial B, 52 grams sorbitol per day, Parity ≥2, Day 1 to Day 14) was 5.68% and 5.68^c percent, the “Percentage Piglet Mortality” value ([1]; Trial B, 52 grams sorbitol per day, Parity ≥2, Day 1 to Weaning) was 5.71% and 5.71^c percent and the “Number of Nursing Piglets” value [1, 18] was 10.62. The “Number of Nursing Piglets” value [1, 19] was 10.02, the “Percentage Piglet Mortality” value ([1]; Trial B, 52 grams sorbitol per day, Parity ≥2, Day 14 to weaning) was 0.00% and the “piglet mortality drop versus Control” value [1, 20] was 55.29%. The “piglet mortality percentage drop versus Control” value [1, 20] was 7.06 percentage points, the “piglet mortality drop versus Control” value [1, 21] was 47.06% and the “piglet mortality percentage drop versus Control” value [1, 21] was 5.05 percentage points. The “Mean Weight of Individual Piglets” value [2, 3] was 14.80 pounds, the “Total Live Weight of Litter” value [2, 3] was 147.53^de pounds and the “Mean Weight of Individual Piglets” value [2, 22] was 4.11 pounds. The “Total Live Weight of Litter” value [2, 22] was 43.29 pounds, the “Mean Weight of Individual Piglets” value [2, 4] was 10.59 pounds and the “Total Live Weight of Litter” value [2, 4] was 107.85 pounds. For the same compound, the “Mean Weight of Individual Piglets” value [2, 7] was 15.02 pounds, the “Total Live Weight of Litter” value [2, 7] was 150.42^bc pounds and the “Mean Weight of Individual Piglets” value [2, 8] was 4.14 pounds. For the same compound, the “Total Live Weight of Litter” value [2, 8] was 43.37 pounds, the “Mean Weight of Individual Piglets” value [2, 9] was 10.82 pounds and the “Total Live Weight of Litter” value [2, 9] was 109.76 pounds. For the same compound, the “Mean Weight of Individual Piglets” value [2, 12] was 15.55 pounds, the “Total Live Weight of Litter” value [2, 12] was 154.81 pounds and 154.81^e pounds and the “Mean Weight of Individual Piglets” value [2, 23] was 3.90 pounds. The “Total Live Weight of Litter” value [2, 23] was 41.17 pounds, the “Mean Weight of Individual Piglets” value [2, 13] was 10.39 pounds and the “Total Live Weight of Litter” value [2, 13] was 104.39 pounds. The “Mean Weight of Individual Piglets” value [2, 17] was 16.03 pounds, the “Total Live Weight of Litter” value [2, 17] was 159.86 pounds and 159.86^c pounds and the “Mean Weight of Individual Piglets” value [2, 18] was 4.18 pounds. The “Total Live Weight of Litter” value [2, 18] was 44.48 pounds, the “Mean Weight of Individual Piglets” value [2, 19] was 10.87 pounds and the “Total Live Weight of Litter” value [2, 19] was 109.25 pounds.

— US11452303B2, “Methods for feeding sows and for improving the health of young piglets” (PURINA ANIMAL NUTRITION LLC, priority 2003, dated 2022)
